One compound from patent EP0942896B1, “SUBSTITUTED PHENOLS AND THIOPHENOLS USEFUL AS ANTIOXIDANT AGENTS” (Aventis Pharmaceuticals Inc., priority 1996, dated 1998) can be followed below.

The first series has as its system Male Sprague-Dawley Rats. Nature of the series: Serum clinical chemistries in rats fed compound as dietary admixture. It is filed as in vivo. The following applies: % of control; alanine aminotransferase in rat serum; diet 0.3%, 4 days; N = 5. The text has this: (§1) A typical experiment consists of 4-6 groups of rats (N = 5 per group) with I group being a control which receives no MDL compound and the other groups being treated with 0.3% MDL compound. Some of the compounds are either repeated at 0.3% or evaluated again at the lower dose of 0.1%. House Male Sprague-Dawley rats, 50-100 g, (Harlan Laboratories, Indianapolis, IN) in groups of 5, feeding ad libitum water and Purina Rodent chow (#5002) with or without MDL compound as a dietary admixture for 4 days. Make dietary admixtures (0.3%) by mixing 1.2 grams of an MDL compound with 400 grams of Purina rodent chow (#5002). Mix the MDL compound with approximately 50 grams of food using a mortar and pestle. This is added to the remainder of the food and mixed for 3 hours on a rotary mixer. In the morning of day 5, anesthetize non-fasted rats with carbon dioxide, and collect blood by cardiac puncture. Sacrifice rats by cervical dislocation. Record body weights and liver weights in grams. Record food consumption as grams • day^-1 • rat^-1. Deaths are recorded as mortality. Use aliquots of fresh serum for clinical chemistries, thiobarbituric acid reactive substances (TBARS) and conjugated diene measurements. Freeze aliquots of serum (∼ 0.5mL) and whole livers at -20°C for compound and metabolite concentration determination at a later time.
Allow blood to clot at room temperature for 30 minutes. Obtain serum after centrifugation for 10 min at 4°C at 3000 rpm in a Beckman J-6M/E centrifuge with a JS-4.2 rotor. Analyze fresh serum by a COBAS MIRA S autoanalyzer (Roche Diagnostics) using Roche diagnostic reagents for the following clinical chemistry measurements: alkaline phosphatase (ALP, kit # 44553), alanine transaminase (ALT, kit # 42375), aspartate aminotransferase (AST, kit # 42381), total cholesterol (CHOL, kit # 44334), triglyceride (TG, kit # 44120), and glucose (GLU, kit # 44558). Calculate ALP, ALT, and AST as units/L. Calculate cholesterol, triglycerides, and glucose as mg/dL.
Regarding `CC(CCCC(C)(C)O)CCSc1cc(C(C)(C)C)c(O)c(C(C)(C)C)c1` (stereo not shown) [MDL 104,487, Phenol, 2,6-bis(1,1-dimethylethyl)-4-[(7-hydroxy-3,7-dimethyloctyl)thio]-], the ALT worked out at 129%.

The same series, now with this note: % of control; alkaline phosphatase in rat serum; diet 0.3%, 4 days; N = 5.
Consider `CC(CCCC(C)(C)O)CCSc1cc(C(C)(C)C)c(O)c(C(C)(C)C)c1` (stereo not shown) [MDL 104,487, Phenol, 2,6-bis(1,1-dimethylethyl)-4-[(7-hydroxy-3,7-dimethyloctyl)thio]-], for which the ALP is listed as 137%.

Staying with this series, now noted: % of control; aspartate aminotransferase in rat serum; diet 0.3%, 4 days; N = 5.
For `CC(CCCC(C)(C)O)CCSc1cc(C(C)(C)C)c(O)c(C(C)(C)C)c1` (stereo not shown) [MDL 104,487, Phenol, 2,6-bis(1,1-dimethylethyl)-4-[(7-hydroxy-3,7-dimethyloctyl)thio]-], the AST is 124%.

The series is the same for the next values; noted with them: % of control; glucose in rat serum; diet 0.3%, 4 days; N = 5.
Consider `CC(CCCC(C)(C)O)CCSc1cc(C(C)(C)C)c(O)c(C(C)(C)C)c1` (stereo not shown) [MDL 104,487, Phenol, 2,6-bis(1,1-dimethylethyl)-4-[(7-hydroxy-3,7-dimethyloctyl)thio]-], for which the GLUC is 92%.

The series is the same for the next values; noted with them: feed or water, 96 h; % of control; total cholesterol in rat serum; diet 0.3%, 4 days; N = 5; read-out: CHOL.
As for `CC(CCCC(C)(C)O)CCSc1cc(C(C)(C)C)c(O)c(C(C)(C)C)c1` (stereo not shown) [MDL 104,487, Phenol, 2,6-bis(1,1-dimethylethyl)-4-[(7-hydroxy-3,7-dimethyloctyl)thio]-], the response vs control in vivo at 0.3 % in diet worked out at 127%.

Staying with this series, now noted: feed or water, 96 h; % of control; triglycerides in rat serum; diet 0.3%, 4 days; N = 5; read-out: TRIG.
For the compound `CC(CCCC(C)(C)O)CCSc1cc(C(C)(C)C)c(O)c(C(C)(C)C)c1` (stereo not shown) [MDL 104,487, Phenol, 2,6-bis(1,1-dimethylethyl)-4-[(7-hydroxy-3,7-dimethyloctyl)thio]-], the response vs control in vivo at 0.3 % in diet is 108%.

The next series has as its system oxidation of serum lipids. As to the kind of experiment: TBARS assay on serum of treated rats (CuSO4-initiated oxidation). It is filed as in vivo, Male Sprague-Dawley rats. Particulars: % of control; thiobarbituric acid reactive substances as nmoles MDA, rat serum; diet 0.3%, 4 days; N = 5.
From the text: as §1
In this assay the oxidation of serum lipids is initiated with CuSO4, resulting in the formation of aldehydes, such as malondialdehyde (MDA). Upon incubation with thiobarbituric acid, the absorbance of the aldehydes can be detected at 530-540 nm. As stated in the previous example, TBARS values which are lower than control serum values indicate the relative ability of a test compound to inhibit the oxidation of lipids in a sample. Measure TBARS as follows: mix 100µL of serum with 400µL of a 5mmol CuSO4 solution and incubate at 37°C for 3 hr. Stop the reactions by addition of 1.0mL of 20% trichloroacetic acid. Then add 1.0mL of 0.67% thiobarbituric acid in 0.05 N sodium hydroxide, mix, and incubate the samples for 30 min at 90°C. Centrifuge samples briefly to pellet undissolved material, and transfer the supernatants to a 96-well microtiter plate. Measure absorbances at 540 nm using a Biotek model EL311 microplate reader. The nmoles of MDA produced are calculated from a standard curve of 0 to 10 nmoles of MDA prepared from malonaldehyde bis(dimethylacetal). Serum samples from treated rats are compared to serum samples from control rats that received no MDL compound.
Consider `CC(CCCC(C)(C)O)CCSc1cc(C(C)(C)C)c(O)c(C(C)(C)C)c1` (stereo not shown) [MDL 104,487, Phenol, 2,6-bis(1,1-dimethylethyl)-4-[(7-hydroxy-3,7-dimethyloctyl)thio]-], for which the TBARS is reported as 87%.

Test system in another series: not listed separately
Nature of the series: Animal parameters (food, body weight, liver weight/body weight, mortality) in rats. Format: in vivo. Particulars: % of control; grams eaten per day per rat; diet 0.3%, 4 days; N = 5.
From the text: as §1
In turn, `CC(CCCC(C)(C)O)CCSc1cc(C(C)(C)C)c(O)c(C(C)(C)C)c1` (stereo not shown) [MDL 104,487, Phenol, 2,6-bis(1,1-dimethylethyl)-4-[(7-hydroxy-3,7-dimethyloctyl)thio]-] had a food of 90%.

The same series, now with this note: % of control; liver weight/body weight; rat; diet 0.3%, 4 days; N = 5.
`CC(CCCC(C)(C)O)CCSc1cc(C(C)(C)C)c(O)c(C(C)(C)C)c1` (stereo not shown) [MDL 104,487, Phenol, 2,6-bis(1,1-dimethylethyl)-4-[(7-hydroxy-3,7-dimethyloctyl)thio]-]: the lw/bw was determined as 150%.

Staying with this series, now noted: % of control; weight in grams; rat; diet 0.3%, 4 days; N = 5.
In the case of `CC(CCCC(C)(C)O)CCSc1cc(C(C)(C)C)c(O)c(C(C)(C)C)c1` (stereo not shown) [MDL 104,487, Phenol, 2,6-bis(1,1-dimethylethyl)-4-[(7-hydroxy-3,7-dimethyloctyl)thio]-], the body wt. was determined as 95%.

The same series, now with this note: male, Sprague-Dawley, rat, in vivo, 4 days.
`CC(CCCC(C)(C)O)CCSc1cc(C(C)(C)C)c(O)c(C(C)(C)C)c1` (stereo not shown) [MDL 104,487, Phenol, 2,6-bis(1,1-dimethylethyl)-4-[(7-hydroxy-3,7-dimethyloctyl)thio]-] showed a mortality of 0%.

Test system in the next series: not listed separately
Nature of the series: HPLC quantitation of compound and metabolite concentration in rat serum and liver. The following applies: male, Sprague-Dawley, oral, 0.3 % in chow; parent compound concentration in rat liver; diet 0.3%, 4 days; mean N = 5; read-out: Liver Parent. Format: in vivo.
From the text: as §1
Determine serum and liver concentrations of parent compound and the metabolites, bisphenol and diphenoquinone, by reverse phase HPLC using a Waters 990 Powerline system. Homegenize livers (1 gram samples) with 5.0mL PBS, pH 7.4, using a Polytron tissue homogenizer at setting 5 for 20-30 seconds. Extract serum or liver homogenates as follows: add 100µL of either serum or homogenate to 2.0mL diethyl ether: ethanol (3:1) while vortexing the tube. Cap the sample tubes and centrifuge for 10 min at 5°C at 3500 rpm in a Beckman GPKR centrifuge with a GH 3.7 rotor. Transfer the supernatants to clean tubes and dry under N2. Reconstitute samples with 200µL of acetonitrile : hexane : 0.1 M ammonium acetate (90: 6.5 : 3.5, by vol.). Then, inject 100µL onto a Waters Deltapak C18-300 Å column, and elute with an 83% acetonitrile : 17% water mobile phase at a flow rate of 1.5mL/min. Record absorbances at the wavelengths of 240, 254, and 420nm. Calculate compound concentrations from known quantities of authentic parent compounds after correction for recovery. […]. Calculate concentrations as µg/mL of serum and µg/g of liver.
As for `CC(CCCC(C)(C)O)CCSc1cc(C(C)(C)C)c(O)c(C(C)(C)C)c1` (stereo not shown) [MDL 104,487, Phenol, 2,6-bis(1,1-dimethylethyl)-4-[(7-hydroxy-3,7-dimethyloctyl)thio]-], the concentration at 5 day stood at 3800 ng/g.

Staying with this series, now noted: male, Sprague-Dawley, oral, 0.3 % in chow; parent compound concentration in rat serum; diet 0.3%, 4 days; mean N = 5; read-out: Serum Parent.
As for `CC(CCCC(C)(C)O)CCSc1cc(C(C)(C)C)c(O)c(C(C)(C)C)c1` (stereo not shown) [MDL 104,487, Phenol, 2,6-bis(1,1-dimethylethyl)-4-[(7-hydroxy-3,7-dimethyloctyl)thio]-], the concentration at 5 day came out at 4100 ng/mL.
